Assay [1] has as its system P2X3. Briefly: Mean pIC50s at P2X3 from Carter et al (literature). The class given is cell-based.
Assay [2] concerns P2X3. The conditions noted are these: oxygen-linked analogs; from Carter et al, Bioorg Med Chem Lett 2009; cited from earlier work.
The target in assay [3] is T1, human P2X2/3 receptor (heteromeric P2X2/3 channels) (Homo sapiens, UniProt P56373+Q9UBL9).
T1 construct: expressed in transfected cells; host or cells: 1321N1 human astrocytoma cells (1321N1-hP2X2/3)
T1 sequence (P56373 1-397): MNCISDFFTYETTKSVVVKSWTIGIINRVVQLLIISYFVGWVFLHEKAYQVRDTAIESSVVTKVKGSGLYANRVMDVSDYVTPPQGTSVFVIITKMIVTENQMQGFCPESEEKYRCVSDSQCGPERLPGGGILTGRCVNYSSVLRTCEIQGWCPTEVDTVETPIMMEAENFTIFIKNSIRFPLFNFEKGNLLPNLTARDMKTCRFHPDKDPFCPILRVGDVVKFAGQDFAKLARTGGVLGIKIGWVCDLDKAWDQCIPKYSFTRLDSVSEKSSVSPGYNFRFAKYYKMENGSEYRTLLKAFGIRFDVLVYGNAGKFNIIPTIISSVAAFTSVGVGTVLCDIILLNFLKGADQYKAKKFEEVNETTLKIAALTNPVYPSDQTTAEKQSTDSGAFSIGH
T1 sequence (Q9UBL9 1-471): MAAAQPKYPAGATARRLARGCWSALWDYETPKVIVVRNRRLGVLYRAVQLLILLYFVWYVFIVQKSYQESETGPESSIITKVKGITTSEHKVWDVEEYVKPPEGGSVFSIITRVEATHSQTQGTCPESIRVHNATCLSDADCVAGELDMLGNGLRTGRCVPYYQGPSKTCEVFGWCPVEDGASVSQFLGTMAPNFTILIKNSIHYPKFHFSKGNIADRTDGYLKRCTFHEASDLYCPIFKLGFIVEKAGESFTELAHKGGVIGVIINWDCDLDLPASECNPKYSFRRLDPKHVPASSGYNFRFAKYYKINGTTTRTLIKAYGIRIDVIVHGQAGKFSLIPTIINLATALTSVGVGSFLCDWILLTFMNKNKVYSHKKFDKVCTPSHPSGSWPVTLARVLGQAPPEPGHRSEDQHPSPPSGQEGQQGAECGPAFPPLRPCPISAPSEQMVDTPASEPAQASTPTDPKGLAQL
As to the kind of experiment: FlexStation calcium fluorescence assay, heteromeric P2X2/3 channels (1321N1-hP2X2/3 cells). It is filed as cell-based. The settings on record: agonist 3 μM ATP, highest concentration tested 10 μM, read-out: Average pIC50 P2X2/3 (converted). How it is done:
(§1) 1321N1 human astrocytoma and HEK293 human embryonic kidney cells were stably transfected with human P2X2 and P2X3 receptor subunits to form heteromeric P2X2/3 channels and passaged in flasks. Additionally, HEK293 cells were stably transfected with human P2X3 receptor subunits to form homomeric P2X3 channels.
(§2) Approximately 24 hours before the FlexStation calcium fluorescence experiment, cells were released from their flasks, centrifuged and re-suspended in nutrient medium. The cells were aliquoted into black-wall, clear-bottom 96 well plates at a density of 25,000 cells per well and incubated overnight in a humidified, CO2-enriched (5%) atmosphere at 37° C.
(§3) On the day of the experiment, cells were washed with assay buffer (calcium- and magnesium-free Hank's balanced salt solution, 20 mM HEPES, 2 mM CaCl2; AB) and loaded with 4 μM Fluo-4 (P2X2/3) or Calcium 6 (Molecular Devices, according to manufacturer's instructions; P2X3) calcium-sensitive fluorescent dye in 100 μL AB.
(§4) After 1 hour of dye loading at 37° C., 1321N1-hP2X2/3 cells were washed two times with AB and test compound or vehicle added to each well in a total volume of 150 μL AB. HEK-hP2X3 cells were not washed because the Calcium 6 dye kit includes an extracellular dye that quenches unabsorbed Calcium 6 dye; test compound or vehicle were added directly to the assay plates to achieve the appropriate concentration of test compound in a total volume of 150 μL AB.
(§5) After 20 minutes incubation at RT and protected from light, the assay plates were loaded into the FlexStation microplate reader and baseline fluorescence measured with an excitation wavelength of 485 nm and emission wavelength readings centered at 525 nm (515 nm cut off).
(§6) The agonist was dispensed by the FlexStation during fluorescence measurement to construct agonist activation and antagonist inhibition curves. The final agonist concentration for inhibition was 1 μM α,β-meATP for P2X3 and 3 μM ATP for P2X2/3. Peak fluorescence was measured and curves generated using a four parameter nonlinear regression equation.

Assay [4] addresses T2, human P2X3 receptor (homomeric P2X3 channels) (Homo sapiens, UniProt P56373).
T2 construct: expressed in transfected cells; host or cells: HEK293 human embryonic kidney cells (HEK-hP2X3)
T2 sequence (P56373 1-397): T1 sequence (P56373 1-397)
As to the kind of experiment: FlexStation calcium fluorescence assay, homomeric P2X3 channels (HEK-hP2X3 cells). It is filed as cell-based. The settings on record: for IC50: HEK293 cells stably transfected with human P2X3, agonist 1 μM α,β-meATP, highest concentration tested 10 μM, read-out: Average pIC50 P2X3 (converted); for Selectivity P2X3/P2X2/3: potency ratio P2X3 over P2X2/3 from pIC50s. How it is done:
as §1, §2, §3, §4, §5, §6

The values that follow come from US11230532B2, “Pyrimidines and variants thereof, and uses therefor” (Afferent Pharmaceuticals Inc., priority 2016, dated 2022).

Where two headings read alike, the source gives them in different places. A value given as a limit tells only on which side of the number the result lay.

For `COc1cc(C(C)C)c(Oc2cnc(N)nc2N)cc1Cl` [D, X = O], the “Selectivity, X = O” value in the assay on P2X3 [1] (potency ratio P2X3 over P2X2/3 from the cited pIC50s) amounted to 4. The “P2X3 mean pIC50, X = O” value in the assay on P2X3 [2] is on record as 7.6.
As for `COc1cc(Oc2cnc(N)nc2N)c(C(C)C)cc1OC` [Row A, X = O, reference compound], in the assay with P2X3 [2], the “P2X3 mean pIC50, X = O” value was 7.6.
Turning to `COc1cc(C(C)C)c(Oc2cnc(N)nc2N)cc1S(C)(=O)=O` [C, X = O], the “Selectivity, X = O” value in the assay with P2X3 [1] was 10. For the same compound, the “P2X3 mean pIC50, X = O” value in the assay with P2X3 [2] is reported as 7.0.
`COc1nc(C(C)C)c(Sc2cnc(N)nc2N)cc1Cl` [Compound 38]: the IC50 in assay [3] was more than 10000 nM. Moreover, in assay [4], the IC50 is 200 nM and the “Selectivity P2X3/P2X2/3” value is recorded as more than 48.
For the compound `COc1nc(C(C)C)c(Sc2cnc(N)nc2N)cc1S(C)(=O)=O` [Compound 25], the IC50 in assay [3] is more than 10000 nM. For the same compound, in assay [4], the IC50 was 200 nM and the “Selectivity P2X3/P2X2/3” value was more than 52.
The matching figures for `COc1cc(C(C)C)c(Nc2cnc(N)nc2N)cc1C(F)(F)F` [Compound 40]: more than 10000 nM, 79.4 nM and more than 123.
Regarding `COc1cc(C(C)C)c(Oc2cnc(N)nc2N)cc1I` [B, X = O], the “Selectivity, X = O” value in the assay on P2X3 [1] turned out to be 8. Further, the “P2X3 mean pIC50, X = O” value in the assay on P2X3 [2] is reported as 8.0.
As to `CC#Cc1cc(Sc2cnc(N)nc2N)c(C(C)C)nc1OC` [Compound 28], the IC50 in assay [3] was 6310 nM. In assay [4], the IC50 is 794 nM and the “Selectivity P2X3/P2X2/3” value amounted to 7.2.
Regarding `COc1cc(Nc2cnc(N)nc2N)c(C(C)C)cc1OC` [Compound 30], the IC50 in assay [3] is 1580 nM. In assay [4], the IC50 was 63.1 nM and the “Selectivity P2X3/P2X2/3” value stood at 28.
As for `COc1nc(C(C)C)c(Nc2cnc(N)nc2N)cc1S(C)(=O)=O` [Compound 36], the IC50 in assay [3] was more than 10000 nM; in assay [4], 25.1 nM. The “Selectivity P2X3/P2X2/3” value in assay [4] is on record as more than 370.
The matching figures for `CCc1cc(OC)c(S(C)(=O)=O)cc1Sc1cnc(N)nc1N` [Compound 22]: more than 10000 nM, 3980 nM and more than 3.
